Assays:
[1] = Competitive slurry experiments of polymorphic forms; assay type: physicochemical; settings: competitive slurry of Form 1 with Form 2 and Form 3 in acetonitrile at room temperature (20-25° C.) and 75° C.
Text: Three anhydrous polymorphic forms of telmapitant or (5R,8S)-8-[[(1R)-1-[3,5-bis(trifluoromethyl)phenyl]ethoxy]methyl]-8-phenyl-1,3,7-triazaspiro[4.5]decane-2,4-dione (MK-7035) have been identified during polymorph screening.

[2] = tested on: emesis induced by apomorphine IV and syrup of ipecac orally; settings: dogs; centrally acting emetogens (apomorphine IV) and peripherally acting emetogens (syrup of ipecac orally); cited from earlier work

SMILES	relative thermodynamic stability of polymorphic forms [1]	efficacy against emetogens [2]
C[C@@H](OC[C@@]1(c2ccccc2)CC[C@]2(CN1)NC(=O)NC2=O)c1cc(C(F)(F)F)cc(C(F)(F)F)c1 [Form 1, (5R,8S)-8-[[(1R)-1-[3,5-bis(trifluoromethyl)phenyl]ethoxy]methyl]-8-phenyl-1,3,7-triazaspiro[4.5]decane-2,4-dione]	thermodynamically more stable than Form 2 and Form 3	
COc1ccc(C(C)(C)C)cc1CN[C@H]1C2CCN(CC2)[C@H]1C(c1ccccc1)c1ccccc1 [maropitant]		effective

Source: patent US20220227769A1, “CRYSTALLINE FORM OF TELMAPITANT OR (5R,8S)-8-[[(1R)-1-[3,5-BIS(TRIFLUOROMETHYL)PHENYL]ETHOXY]METHYL]-8-PHENYL-1,3,7-TRIAZASPIRO[4.5]DECANE-2,4-DIONE” (Intervet Inc., priority 2019, published 2022)
